A word on the IC50: it is the midpoint of a concentration-inhibition curve.

The structures appear in SMILES notation. Like-named read-outs stand apart in the source and are kept apart here.

One assay relates to MOLM-13 AML cells. Put plainly: Cell viability (CellTiter-Glo), MOLM-13. The settings on record: Homo sapiens. The class given is cell-based. On the procedure:
Inhibition of SHP2 has been reported to inhibit the growth of cancer cells including Kasumi-1 acute myeloid leukemia (AML) and KYSE-520 esophageal cancer cells ([30]). […] Thus, we treated two TNBC cell lines, BT-549 and MDA-MB-468, with SBI-4668 or the SHP2 allosteric inhibitor SHP099 at various concentrations and determined cell viability after 72 h, compared with the vehicle control (Fig. 4C). […] Next, we performed an 11-day colony formation assay with TNBC cells treated with SBI-4668 or SHP099 at 5, 10, or 20 μM (Fig. 4D).
(§1) Finally, we evaluated the selectivity of our top two compounds, SBI-2130 and SBI-4668, on MOLM-13 AML cells in which SHP2 was depleted using CRISPR–Cas9 KO. High-efficiency Cas9-editing MOLM-13 cells were generated by transducing MOLM-13 cells with a Cas9 lentiviral construct. Stable clones were tested for editing efficiency by performing tracking of indels by decomposition analysis ([45]), and these MOLM-13-Cas9 cells were transduced with a lentiviral construct containing an AAVS1 single-guide RNA (sgRNA) and an mCherry reporter for bulk sorting of cells with successful AAVS1 editing. SHP2 KO was achieved by transducing MOLM-13-Cas9-mCherry cells with a lentivirus, containing SHP2 dual sgRNAs, resulting in ∼80% reduction of SHP2 protein levels (Fig. 4G). SBI-2130, SBI-4668, and the SHP2 allosteric inhibitor, SHP099, were tested in parallel on regular MOLM-13 cells (expressing WT SHP2) and MOLM-13-Cas9-mCherry cells with SHP2 KO. Cells were treated with inhibitors at various concentrations (ranging from 30 μM to 58 nM) or vehicle control (DMSO) for 72 h, before cell viability was assessed.
Viability of AML and esophageal carcinoma cells was assessed using the ATP-depletion assay CellTiter-Glo (Promega). Cells were harvested at 1 × 10^6/ml to 2 × 10^6 cells/ml with cell numbers determined by trypan blue using the Countess Cell counter (Thermo Scientific) and resuspended in culture media. About 3000 cells (in 20 μl) were seeded in a 384-well format white and clear-bottom microplate (catalog no.: 781098; Greiner) spotted with test compound or vehicle control (DMSO) using an Echo 555 Liquid Handler. […] Luminescence was read on a Tecan Spark Multimode Microplate Reader, and data were analyzed using GraphPad Prism software.
For SHP2 KO, dual sgRNAs targeting SHP2 were cloned in the pLentiGuide puro vector (Addgene plasmid no. 52963 from Dr Feng Zhang) using a published protocol ([50]). […] SHP2 KO was evaluated by immunoblotting. […] For SHP2 KO, MOLM-13-Cas9-mCherry cells were seeded in nontreated 6-well plates (2 × 10^6 cells/well in 2.5 ml), with cell numbers determined by trypan blue using the Countess Cell Counter (Thermo Scientific). […]
For orientation: In ATP-based viability assays light output follows the ATP content of the culture.

For assay [1], the system named is MOLM-13-Cas9-mCherry cells with SHP2 KO. Put plainly: Cell viability, MOLM-13 SHP2 CRISPR–Cas9 KO. The conditions noted are these: 72 h, 30 μM to 58 nM. The class given is cell-based. On the procedure:
as §1, with “SHP2 KO was achieved by transducing MOLM-13-Cas9-mCherry cells with a lentivirus, containing SHP2 dual sgRNAs, resulting in ∼80% reduction of SHP2 protein levels (Fig. 4G). SBI-2130, SBI-4668, and the SHP2 allosteric inhibitor, SHP099, were tested in parallel on regular MOLM-13 cells (expressing WT SHP2) and MOLM-13-Cas9-mCherry cells with SHP2 KO.” left out, “assessed. […]” for “assessed.”
For SHP2 KO, dual sgRNAs targeting SHP2 were cloned in the pLentiGuide puro vector (Addgene plasmid no. 52963 from Dr Feng Zhang) using a published protocol ([50]). […] SHP2 KO was evaluated by immunoblotting. […] For SHP2 KO, MOLM-13-Cas9-mCherry cells were seeded in nontreated 6-well plates (2 × 10^6 cells/well in 2.5 ml), with cell numbers determined by trypan blue using the Countess Cell Counter (Thermo Scientific). […] Cell viability was assessed using the ATP-depletion assay CellTiter-Glo as described previously, and data were analyzed using GraphPad Prism software.

Setting [2] is: 72 h, 30 μM to 58 nM, regular MOLM-13 expressing WT SHP2 (Fig. 4G), read-out: MOLM-13 cell viability IC50 (parallel to SHP2 KO).

Turning to `O=C(Nc1ccccc1)c1cc(-c2ccc(/C=C3\Sc4ccccc4C3=O)o2)ccc1O` [SBI-4668, (Z)-2-Hydroxy-5-(5-((3-oxobenzo[b]thiophen-2(3H)-ylidene)methyl)furan-2-yl)-N-phenylbenzamide], the half-inhibitory concentration (IC50) is 12 µM with MOLM-13 AML cells (MOLM-13, 72 h, 3 days in culture (Fig. 4B), read-out: MOLM-13 cell viability IC50) and 15 µM with MOLM-13 AML cells (setting [2]). In addition, in assay [1], the “effect on viability of MOLM-13-Cas9-mCherry SHP2 KO cells” value was “either completely abrogated or greatly reduced”.

For the compound `Nc1ccc(NC(=O)c2cc(-c3ccc(/C=C4\Sc5ccccc5C4=O)o3)ccc2O)cc1` [SBI-2130, (Z)-N-(4-Aminophenyl)-2-hydroxy-5-(5-((3-oxobenzo[b]thiophen-2(3H)-ylidene)methyl)furan-2-yl)benzamide], the IC50 in the assay on MOLM-13 AML cells (setting [2]) was 7.6 µM. Besides, the “effect on viability of MOLM-13-Cas9-mCherry SHP2 KO cells” value in assay [1] is on record as “either completely abrogated or greatly reduced”.

The values are drawn from article PMC8760490, “Discovery of novel furanylbenzamide inhibitors that target oncogenic tyrosine phosphatase SHP2 in leukemia cells” (The Journal of Biological Chemistry, 2021).
